These are literature values, as cited in US12390475B2, “Dry powder treprostinil for the treatment of pulmonary hypertension” (priority 2016, dated 2025).

Like-named read-outs stand apart in the source and are kept apart here.

For data set [1] the following is noted: various buffer solutions at various pH levels, octanol.
For data set [2] the following is noted: aqueous titration with 20% ethanol as a co-solvent.

Turning to `CCCCC[C@H](O)CC[C@@H]1[C@H]2Cc3cccc(OCC(=O)[O-])c3C[C@H]2C[C@H]1O.[Na+]` [Treprostinil sodium], the solubility result (in acetone) was “very slightly soluble”; the solubility result (in acetonitrile) was “practically insoluble”; the solubility entry (in ethanol) is recorded as “very soluble”; the solubility result (in ethyl acetate) is “practically insoluble”; the solubility entry (in n-hexane) is “practically insoluble”; the solubility result (in water) is recorded as “very soluble”.

On to `CCCCC[C@H](O)CC[C@@H]1[C@H]2Cc3cccc(OCC(=O)O)c3C[C@H]2C[C@H]1O` [Treprostinil, 2-[[(1R,2R,3aS,9aS)-2-hydroxy-1-[(3S)-3-hydroxyoctyl]-2,3,3a,4,9,9a-hexahydro-1H-cyclopenta[g]naphthalen-5-yl]oxy]acetic acid], for which the solubility entry (unbuffered water and low pH buffers) is listed as “poorly soluble”. Also, the distribution coefficient result in data set [1] is “distribution into octanol layers at all pH levels”. For the same molecule, the pKa in data set [2] is given as 4.5.

As usually defined, the pKa is the pH at which an ionisable group is half protonated.
